From PMC7419507, “In vitro Cas9-assisted editing of modular polyketide synthase genes to produce desired natural product derivatives” (Nature Communications, 2020)
“And” between values parts separate entries of the source, which are not always exact repeats. Equal entries are not always repeated.

Tests used:
Type in all cases: cell-based
[1] = test system: malignant pleural mesothelioma MESO-1 cells; assay: Cytotoxicity assay (CellTiter-Glo, 72 h), MESO-1; conditions: raw replicate data
Outline: (§1)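 1000 cells/well; 4 h settle, then 2-fold serial dilutions (0.5% DMSO final), 72 h, 37 °C/5% CO2. Read-out: CellTiter-Glo luminescence. Media: RPMI1640 + 10% FBS (Jurkat, MESO-1; Jurkat also Glutamax), DMEM + 10% FBS (SKOV-3).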

[2] = Cytotoxicity assay (CellTiter-Glo, 72 h), Jurkat; conditions: human, Jurkat cells (T lymphoma)
Outline: as §1

T lymphoma Jurkat cells = assay: Cytotoxicity assay (CellTiter-Glo, 72 h), Jurkat; conditions: raw data (replicates)
Outline: as §1

Compound: COC1CC2CCC(C)C(O)(O2)C(=O)C(=O)N2CCCCC2C(=O)OC(C(C)CC2CCC(O)C(OC)C2)CCC(C)C=C(C)C(O)C(OC)C(=O)C(C)CC(C)C=CC=CC=C1C (stereo not shown) [Compound 16, 32-desketorapamycin]
- MESO1 viability (%) ([1]; conc 9.53674e-5 uM): 98.1% and 96.4%
- MESO1 viability (%) ([1]; conc 0.000190735 uM): 91.1% and 98.0%
- MESO1 viability (%) ([1]; conc 0.00038147 uM): 95.4% and 92.4%
- MESO1 viability (%) ([1]; conc 0.000762939 uM): 78.9% and 75.5%
- MESO1 viability (%) ([1]; conc 0.00152588 uM): 89.1% and 81.4%
- MESO1 viability (%) ([1]; conc 0.00305176 uM): 75.1% and 66.9%
- MESO1 viability (%) ([1]; conc 0.00610352 uM): 75.6% and 76.2%
- MESO1 viability (%) ([1]; conc 0.012207 uM): 76.9% and 75.8%
- MESO1 viability (%) ([1]; conc 0.0244141 uM): 81.3% and 75.2%
- MESO1 viability (%) ([1]; conc 0.0488281 uM): 73.0% and 74.7%
- MESO1 viability (%) ([1]; conc 0.0976562 uM): 75.8%
- MESO1 viability (%) ([1]; conc 0.195312 uM): 76.9% and 68.9%
- MESO1 viability (%) ([1]; conc 0.390625 uM): 78.5%
- MESO1 viability (%) ([1]; conc 0.78125 uM): 69.3% and 68.9%
- MESO1 viability (%) ([1]; conc 1.5625 uM): 73.6% and 69.8%
- MESO1 viability (%) ([1]; conc 3.125 uM): 61.9% and 65.8%
- MESO1 viability (%) ([1]; conc 6.25 uM): 68.9% and 66.9%
- MESO1 viability (%) ([1]; conc 12.5 uM): 60.8% and 58.2%
- MESO1 viability (%) ([1]; conc 25 uM): 49.9% and 47.7%
- MESO1 viability (%) ([1]; conc 50 uM): 33.7% and 30.2%
- viability at 72 h ([2]; 72 h, read-out: Plateau level of cell viability in the dose-response curve): ~25%
- viability at 72 h, 9.53674e-05 uM ([2]; conc 9.53674e-5 uM, raw data (replicates)): 104%
- viability at 72 h, 0.000190735 uM ([2]; conc 0.000190735 uM, raw data (replicates)): 86.9%
- viability at 72 h, 0.00038147 uM ([2]; conc 0.00038147 uM, raw data (replicates)): 91.3%
- viability at 72 h, 0.000762939 uM ([2]; conc 0.000762939 uM, raw data (replicates)): 67.7%
- viability at 72 h, 0.00152588 uM ([2]; conc 0.00152588 uM, raw data (replicates)): 56.5%
- viability at 72 h, 0.00305176 uM ([2]; conc 0.00305176 uM, raw data (replicates)): 40.9%
- viability at 72 h, 0.00610352 uM ([2]; conc 0.00610352 uM, raw data (replicates)): 34.9%
- viability at 72 h, 0.012207 uM ([2]; conc 0.012207 uM, raw data (replicates)): 28.9%
- viability at 72 h, 0.0244141 uM ([2]; conc 0.0244141 uM, raw data (replicates)): 30.6%
- viability at 72 h, 0.0488281 uM ([2]; conc 0.0488281 uM, raw data (replicates)): 25.7%
- viability at 72 h, 0.0976562 uM ([2]; conc 0.0976562 uM, raw data (replicates)): 24%
- viability at 72 h, 0.195312 uM ([2]; conc 0.195312 uM, raw data (replicates)): 24.3%
- viability at 72 h, 0.390625 uM ([2]; conc 0.390625 uM, raw data (replicates)): 25.2%
- viability at 72 h, 0.78125 uM ([2]; conc 0.78125 uM, raw data (replicates)): 22.1%
- viability at 72 h, 1.5625 uM ([2]; conc 1.5625 uM, raw data (replicates)): 21.9%
- viability at 72 h, 3.125 uM ([2]; conc 3.125 uM, raw data (replicates)): 20.3%
- viability at 72 h, 6.25 uM ([2]; conc 6.25 uM, raw data (replicates)): 20.4%
- viability at 72 h, 12.5 uM ([2]; conc 12.5 uM, raw data (replicates)): 11.9%
- viability at 72 h, 25 uM ([2]; conc 25 uM, raw data (replicates)): 2%
- viability at 72 h, 50 uM ([2]; conc 50 uM, raw data (replicates)): 0.248%
- Jurkat viability (%) (T lymphoma Jurkat cells; conc 9.53674e-5 uM): 101.4% and 98.2%
- Jurkat viability (%) (T lymphoma Jurkat cells; conc 0.000190735 uM): 92.4% and 84.6%
- Jurkat viability (%) (T lymphoma Jurkat cells; conc 0.00038147 uM): 90.4% and 75.5%
- Jurkat viability (%) (T lymphoma Jurkat cells; conc 0.000762939 uM): 69.2% and 63.8%
- Jurkat viability (%) (T lymphoma Jurkat cells; conc 0.00152588 uM): 59.9% and 53.6%
- Jurkat viability (%) (T lymphoma Jurkat cells; conc 0.00305176 uM): 41.7% and 44.0%
- Jurkat viability (%) (T lymphoma Jurkat cells; conc 0.00610352 uM): 34.2% and 31.7%
- Jurkat viability (%) (T lymphoma Jurkat cells; conc 0.012207 uM): 27.6% and 27.9%
- Jurkat viability (%) (T lymphoma Jurkat cells; conc 0.0244141 uM): 27.8% and 26.9%
- Jurkat viability (%) (T lymphoma Jurkat cells; conc 0.0488281 uM): 23.6% and 25.9%
- Jurkat viability (%) (T lymphoma Jurkat cells; conc 0.0976562 uM): 24.4%
- Jurkat viability (%) (T lymphoma Jurkat cells; conc 0.195312 uM): 26.3% and 22.8%
- Jurkat viability (%) (T lymphoma Jurkat cells; conc 0.390625 uM): 23.3%
- Jurkat viability (%) (T lymphoma Jurkat cells; conc 0.78125 uM): 22.7% and 23.1%
- Jurkat viability (%) (T lymphoma Jurkat cells; conc 1.5625 uM): 22.0%
- Jurkat viability (%) (T lymphoma Jurkat cells; conc 3.125 uM): 23.1% and 21.1%
- Jurkat viability (%) (T lymphoma Jurkat cells; conc 6.25 uM): 20.5% and 21.0%
- Jurkat viability (%) (T lymphoma Jurkat cells; conc 12.5 uM): 14.7% and 14.4%
- Jurkat viability (%) (T lymphoma Jurkat cells; conc 25 uM): 2.4% and 2.3%
- Jurkat viability (%) (T lymphoma Jurkat cells; conc 50 uM): 0.267% and 0.233%
